Legend:
CDK2/Cyclin A = CDK2/Cyclin A (Homo sapiens, UniProt P24941); assay: Inhibition of CDK2/Cyclin A Retinoblastoma Kinase Activity; type: biochemical; conditions: 0.03 μM compound; for CDK2 % Inhibition At 0.03 μM: Table 2; for CDK2 % Inhibition at 0.03 μM: Table 3
Method in brief: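 Radiometric filter-binding readout of phosphate transfer to an Rb substrate fragment by purified CDK2/truncated cyclin A at 10 or 19 nM. Run at pH 7.4 with 25 μM ATP, 30 °C, 60–75 min, linear rates; background without enzyme subtracted, Ki from competitive-inhibition models.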

HCT-116 cell line = assay: Inhibition of cell growth, tetrazolium salt (MTT) assay; type: cell-based; conditions: HCT-116; for HCT-116 % Inhibition at 0.25 μM: 0.25 μM compound; for HCT-116 % Inhibition at 0.1 μM: 0.1 μM compound
Method in brief: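 Growth inhibition is scored relative to cells receiving only 0.5% (v/v) DMSO. Plated cells rest 4 h, then take compound for three to five days at 37° C; MTT reduction to formazan is read at 540 nm.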

[1] = biological target: human CDK4 and genetically truncated (1-264) cyclin D3 (Homo sapiens, UniProt P11802); assay: Inhibition of CDK4/Cyclin D Retinoblastoma Kinase Activity; type: biochemical; conditions: 0.03 μM compound
human CDK4 and genetically truncated (1-264) cyclin D3, sequence (P11802 whole entry, the tested form may be a part): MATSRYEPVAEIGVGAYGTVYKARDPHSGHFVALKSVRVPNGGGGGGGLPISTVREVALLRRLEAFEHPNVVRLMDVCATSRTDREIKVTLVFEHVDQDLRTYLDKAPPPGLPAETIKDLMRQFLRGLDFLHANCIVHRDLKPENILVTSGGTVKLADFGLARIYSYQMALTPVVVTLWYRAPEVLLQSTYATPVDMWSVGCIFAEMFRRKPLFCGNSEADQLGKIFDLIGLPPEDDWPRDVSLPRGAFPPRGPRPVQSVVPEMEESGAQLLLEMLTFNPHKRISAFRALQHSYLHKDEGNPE
human CDK4 and genetically truncated (1-264) cyclin D3, sequence (P30281 1-264 partner): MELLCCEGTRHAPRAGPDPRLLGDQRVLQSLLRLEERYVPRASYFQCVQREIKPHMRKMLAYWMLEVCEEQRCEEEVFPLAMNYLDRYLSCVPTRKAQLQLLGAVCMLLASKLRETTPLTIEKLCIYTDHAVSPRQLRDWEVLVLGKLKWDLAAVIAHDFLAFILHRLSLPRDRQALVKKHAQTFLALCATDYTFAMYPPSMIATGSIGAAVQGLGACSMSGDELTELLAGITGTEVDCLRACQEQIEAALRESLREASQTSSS
Method in brief: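 Apparent Ki values come from competitive or competitive tight-binding inhibition fits of background-corrected 32P/33P incorporation into His-tagged Rb fragment (386-928), captured on nitrocellulose. Reaction: 5 nM insect-cell-expressed human CDK4 with cyclin D3 (1-264), 25 μM ATP, pH 7.4 HEPES, 2% DMSO, 30° C., 20 min, extended to 60 min for tight-binding inhibitors.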

SMILES	CDK2 % Inhibition At 0.03 μM (CDK2/Cyclin A) [%]	HCT-116 % Inhibition at 0.25 μM (HCT-116 cell line; Table 2) [%]	CDK4 % Inhibition at 0.03 μM ([1]; Table 2) [%]	further results
Nc1nc(NC2CCN(C(=O)Nc3cc(Cl)nc(Cl)c3)CC2)sc1C(=O)c1c(F)cccc1F [Example O64]	32	37	7	
Nc1nc(NC2CCN(C(=O)NCCc3cccs3)CC2)sc1C(=O)c1c(F)cccc1F [Example O65]	22	44	−7	
CC(NC(=O)N1CCC(Nc2nc(N)c(C(=O)c3c(F)cccc3F)s2)CC1)c1ccccc1 (centres unmarked) [Example O66]				CDK2 % Inhibition At 0.03 μM (CDK2/Cyclin A; 0.03 µM): 32%; HCT-116 % Inhibition at 0.25 μM (HCT-116 cell line; Table 2, 0.25 µM): 36%; CDK4 % Inhibition at 0.03 μM ([1]; Table 2, 0.03 µM): −1%
CC(NC(=O)N1CCC(Nc2nc(N)c(C(=O)c3c(F)cccc3F)s2)CC1)c1cccc2ccccc12 (centres unmarked) [Example O67]	31	50	8	
CCOC(=O)C(CC(C)C)NC(=O)N1CCC(Nc2nc(N)c(C(=O)c3c(F)cccc3F)s2)CC1 (centres unmarked) [Example O69]	29	51	5	
CCOC(=O)CCCCCNC(=O)N1CCC(Nc2nc(N)c(C(=O)c3c(F)cccc3F)s2)CC1 [Example O70]	28	52	7	
CCOC(=O)C(CCSC)NC(=O)N1CCC(Nc2nc(N)c(C(=O)c3c(F)cccc3F)s2)CC1 (centres unmarked) [Example O71]	30	51	7	
CCOC(=O)C(C)NC(=O)N1CCC(Nc2nc(N)c(C(=O)c3c(F)cccc3F)s2)CC1 (centres unmarked) [Example O72]	24	62	11	
CCOC(=O)CCNC(=O)N1CCC(Nc2nc(N)c(C(=O)c3c(F)cccc3F)s2)CC1 [Example O73]	29	42	4	
CCOC(=O)C(NC(=O)N1CCC(Nc2nc(N)c(C(=O)c3c(F)cccc3F)s2)CC1)C(C)C (centres unmarked) [Example O74]	35	34	102	
CCOC(=O)C(Cc1ccccc1)NC(=O)N1CCC(Nc2nc(N)c(C(=O)c3c(F)cccc3F)s2)CC1 (centres unmarked) [Example O75]	25	41	10	
COC(=O)[C@@H](NC(=O)N1CCC(Nc2nc(N)c(C(=O)c3c(F)cccc3F)s2)CC1)C(C)C [Example O76]	22	49	5	
COC(=O)[C@H](CC(C)C)NC(=O)N1CCC(Nc2nc(N)c(C(=O)c3c(F)cccc3F)s2)CC1 [Example O77]	24	43	8	
COC(=O)[C@H](Cc1ccccc1)NC(=O)N1CCC(Nc2nc(N)c(C(=O)c3c(F)cccc3F)s2)CC1 [Example O78]	25	47	14	
COC(=O)[C@H](COC(C)(C)C)NC(=O)N1CCC(Nc2nc(N)c(C(=O)c3c(F)cccc3F)s2)CC1 [Example O79]	32	49	8	
CCOC(=O)CC[C@H](NC(=O)N1CCC(Nc2nc(N)c(C(=O)c3c(F)cccc3F)s2)CC1)C(=O)OCC [Example O80]	23	46	15	

SMILES	CDK2 % Inhibition At 0.03 μM (CDK2/Cyclin A) [%]	HCT-116 % Inhibition at 0.25 μM (HCT-116 cell line; Table 2) [%]	CDK4 % Inhibition at 0.03 μM ([1]; Table 2) [%]	further results
CCCc1ccccc1NC(=O)N1CCC(Nc2nc(N)c(C(=O)c3c(F)cccc3F)s2)CC1 [Example O81]	25	44	−4	
Nc1nc(NC2CCN(C(=O)Nc3ccccc3Oc3ccccc3)CC2)sc1C(=O)c1c(F)cccc1F [Example O82]	34	34	4	
CCCCCCCOc1ccc(NC(=O)N2CCC(Nc3nc(N)c(C(=O)c4c(F)cccc4F)s3)CC2)cc1 [Example O83]	29	59	12	
COc1ccc(NC(=O)N2CCC(Nc3nc(N)c(C(=O)c4c(F)cccc4F)s3)CC2)cc1 [Example O84]				CDK2 % Inhibition At 0.03 μM (CDK2/Cyclin A; 0.03 µM): 23%; HCT-116 % Inhibition at 0.25 μM (HCT-116 cell line; Table 2, 0.25 µM): 42%; CDK4 % Inhibition at 0.03 μM ([1]; Table 2, 0.03 µM): 14%
Nc1nc(NC2CCN(C(=O)Nc3cc(C(F)(F)F)ccc3F)CC2)sc1C(=O)c1c(F)cccc1F [Example O85]	34	47	8	
Nc1nc(NC2CCN(C(=O)Nc3cccnc3)CC2)sc1C(=O)c1c(F)cccc1F [Example O86]	32	47	23	
Nc1nc(NC2CCN(C(=O)NCCc3ccc4c(c3)OCO4)CC2)sc1C(=O)c1c(F)cccc1F [Example O87]	25	44	16	
CN1C(=O)c2ccc(NC(=O)N3CCC(Nc4nc(N)c(C(=O)c5c(F)cccc5F)s4)CC3)cc2C1=O [Example O88]	31	45	12	
Nc1nc(NC2CCN(S(=O)(=O)c3cccc4ccccc34)CC2)sc1C(=O)c1c(F)cccc1F [Example P1]				CDK2 % Inhibition at 0.03 μM (CDK2/Cyclin A): 45%; HCT-116 % Inhibition at 0.1 μM (HCT-116 cell line; Table 3): 9%; HCT-116 % Inhibition at 0.25 μM (HCT-116 cell line; Table 3): 32%; CDK4 % Inhibition at 0.03 μM ([1]; Table 3): 51%
CN(C)c1cccc2c(S(=O)(=O)N3CCC(Nc4nc(N)c(C(=O)c5c(F)cccc5F)s4)CC3)cccc12 [Example P2]				CDK2 % Inhibition at 0.03 μM (CDK2/Cyclin A): 43%; HCT-116 % Inhibition at 0.1 μM (HCT-116 cell line; Table 3): 15%; HCT-116 % Inhibition at 0.25 μM (HCT-116 cell line; Table 3): 24%; CDK4 % Inhibition at 0.03 μM ([1]; Table 3): 69%
Nc1nc(NC2CCN(S(=O)(=O)c3ccc4ccccc4c3)CC2)sc1C(=O)c1c(F)cccc1F [Example P3]				CDK2 % Inhibition at 0.03 μM (CDK2/Cyclin A): 64%; HCT-116 % Inhibition at 0.1 μM (HCT-116 cell line; Table 3): 17%; HCT-116 % Inhibition at 0.25 μM (HCT-116 cell line; Table 3): 23%; CDK4 % Inhibition at 0.03 μM ([1]; Table 3): 65%
CC(=O)Nc1nc(C)c(S(=O)(=O)N2CCC(Nc3nc(N)c(C(=O)c4c(F)cccc4F)s3)CC2)s1 [Example P4]				CDK2 % Inhibition at 0.03 μM (CDK2/Cyclin A): 15%; HCT-116 % Inhibition at 0.1 μM (HCT-116 cell line; Table 3): 18%; HCT-116 % Inhibition at 0.25 μM (HCT-116 cell line; Table 3): 24%; CDK4 % Inhibition at 0.03 μM ([1]; Table 3): 32%
Nc1nc(NC2CCN(S(=O)(=O)c3cccs3)CC2)sc1C(=O)c1c(F)cccc1F [Example P5]				CDK2 % Inhibition at 0.03 μM (CDK2/Cyclin A): 64%; HCT-116 % Inhibition at 0.1 μM (HCT-116 cell line; Table 3): 27%; HCT-116 % Inhibition at 0.25 μM (HCT-116 cell line; Table 3): 32%; CDK4 % Inhibition at 0.03 μM ([1]; Table 3): 70%
Nc1nc(NC2CCN(S(=O)(=O)c3cccc4cccnc34)CC2)sc1C(=O)c1c(F)cccc1F [Example P6]				CDK2 % Inhibition at 0.03 μM (CDK2/Cyclin A): −32%; HCT-116 % Inhibition at 0.1 μM (HCT-116 cell line; Table 3): 22%; HCT-116 % Inhibition at 0.25 μM (HCT-116 cell line; Table 3): 23%; CDK4 % Inhibition at 0.03 μM ([1]; Table 3): 18%
CN(C)S(=O)(=O)N1CCC(Nc2nc(N)c(C(=O)c3c(F)cccc3F)s2)CC1 [Example P7]				CDK2 % Inhibition at 0.03 μM (CDK2/Cyclin A): 49%; HCT-116 % Inhibition at 0.1 μM (HCT-116 cell line; Table 3): 25%; HCT-116 % Inhibition at 0.25 μM (HCT-116 cell line; Table 3): 23%; CDK4 % Inhibition at 0.03 μM ([1]; Table 3): 47%
Nc1nc(NC2CCN(S(=O)(=O)c3ccccc3)CC2)sc1C(=O)c1c(F)cccc1F [Example P8]				CDK2 % Inhibition at 0.03 μM (CDK2/Cyclin A): 73%; HCT-116 % Inhibition at 0.1 μM (HCT-116 cell line; Table 3): 37%; HCT-116 % Inhibition at 0.25 μM (HCT-116 cell line; Table 3): 33%; CDK4 % Inhibition at 0.03 μM ([1]; Table 3): 72%

Source: patent US20050101595A1, “N-containing cycloalkyl-substituted amino-thiazole derivatives and pharmaceutical compositions for inhibiting cell proliferation and methods for their use” (PFIZER INC., priority 2003, published 2005)
